Series [1] in a line: Brain homogenate binding, mouse. It counts as in vitro ADME. The following applies: bound. The protocol: concentration), which was aliquoted in triplicate to the ‘bottom half’ of the prepared HTD plate wells. The HTD plate was sealed and incubated for 6 hours at 37 °C. Following incubation, each well (both top and bottom halves) were transferred (20 µL) to the corresponding wells of a 96-shallow-well (V-bottom) plate. The daughter plates were then matrix-matched (DPBS side wells received equal volume of plasma, and plasma side wells received equal volume of DPBS), and extraction solution (120 µL; acetonitrile containing 50 nM carbamazepine as IS) was added to all wells of both daughter plates to precipitate protein and extract test article. […]
The unbound fraction (f u) was calculated following the equation below, and mean values for each species were calculated from 3 replicates.
A similar approach was used to determine the degree of brain homogenate binding, which employed the same methodology and procedure with the following modifications: 1) a final compound concentration of 1 μM was used, 2) naïve rat brains were homogenized in DPBS (1:3 composition of brain: DPBS, w/w) using a Mini-Bead Beater™ machine in order to obtain brain homogenate, which was then treated in the same manner as the plasma samples in the previously described plasma protein binding assay. Fraction unbound for both plasma and brain samples was determined using Equation 4. […]

Another series has as its target TRAAK (Homo sapiens, UniProt Q9NYG8). Briefly: K2P family selectivity, TRAAK. It counts as cell-based.
A further series addresses T1, human TREK-2 (hTREK-2) (Homo sapiens, UniProt P57789).
T1 construct: expressed in transfected cells
T1 sequence (P57789 1-538): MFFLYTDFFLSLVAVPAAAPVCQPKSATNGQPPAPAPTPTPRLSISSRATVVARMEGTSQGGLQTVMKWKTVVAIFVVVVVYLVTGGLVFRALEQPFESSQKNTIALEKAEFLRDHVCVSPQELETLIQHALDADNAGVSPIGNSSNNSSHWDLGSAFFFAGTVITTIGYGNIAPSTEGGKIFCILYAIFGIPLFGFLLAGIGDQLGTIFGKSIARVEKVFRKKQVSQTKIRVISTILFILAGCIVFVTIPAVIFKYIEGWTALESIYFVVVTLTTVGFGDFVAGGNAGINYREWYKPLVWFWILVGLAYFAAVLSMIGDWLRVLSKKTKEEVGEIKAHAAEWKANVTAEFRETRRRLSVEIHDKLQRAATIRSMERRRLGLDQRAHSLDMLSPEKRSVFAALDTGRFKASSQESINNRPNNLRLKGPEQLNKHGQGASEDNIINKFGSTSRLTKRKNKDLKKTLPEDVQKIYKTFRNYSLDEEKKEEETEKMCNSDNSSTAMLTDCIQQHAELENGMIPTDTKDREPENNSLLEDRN
Briefly: TREK-2 thallium flux assay (HEK293 cells stably expressing hTREK-2). The class given is cell-based. Conditions: human TREK-2, thallium flux; read-out: h TREK-2 Tl+ IC50. The protocol:
0.3% DMSO - ΔRatio of 10 μM control compound)}x100
% inhibition vs compound concentration were plotted in XLfit and calculated IC50.
TREK-2 Thallium flux assay
HEK293 cells stably expressing human TREK-2 (hTREK-2) are plated in 384-well plates, cultured overnight, loaded with Thallos dye the following day. Test compounds or control compound (tert-butyl (3-((4-(benzyloxy)-2-methylphenyl)carbamoyl)-4-chlorophenyl)carbamate) or 0.3% DMSO (vehicle control) which are prepared on separate plates are added to the cell plates and incubated for 10 min, and then the cells were treated with thallium stimulus buffer to initiate […]
To measure the efficacy and potency of test compounds, the change in fluorescence intensity (ΔRatio) and % inhibition are calculated using the following equations: […]

A further series deals with T2, dopamine transporter DAT (Homo sapiens, UniProt Q01959).
T2 construct: purchased Eurofins
T2 sequence (Q01959 whole entry): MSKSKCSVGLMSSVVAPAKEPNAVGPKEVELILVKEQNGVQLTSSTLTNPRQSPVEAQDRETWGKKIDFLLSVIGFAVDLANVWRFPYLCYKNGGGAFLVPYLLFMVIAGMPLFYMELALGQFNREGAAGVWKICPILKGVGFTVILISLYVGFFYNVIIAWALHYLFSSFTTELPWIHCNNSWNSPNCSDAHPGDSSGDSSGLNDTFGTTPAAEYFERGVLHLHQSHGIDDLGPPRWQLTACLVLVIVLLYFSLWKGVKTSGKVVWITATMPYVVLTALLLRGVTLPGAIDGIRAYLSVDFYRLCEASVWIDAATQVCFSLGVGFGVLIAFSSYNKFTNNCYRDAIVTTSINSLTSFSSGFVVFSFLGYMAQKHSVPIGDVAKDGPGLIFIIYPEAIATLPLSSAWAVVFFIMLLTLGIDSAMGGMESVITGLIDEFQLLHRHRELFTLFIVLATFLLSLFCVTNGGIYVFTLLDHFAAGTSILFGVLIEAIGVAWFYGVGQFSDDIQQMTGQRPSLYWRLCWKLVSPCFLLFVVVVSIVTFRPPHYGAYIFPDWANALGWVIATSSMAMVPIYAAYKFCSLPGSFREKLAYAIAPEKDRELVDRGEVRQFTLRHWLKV
Put plainly: Radioligand binding, dopamine transporter.

A further series concerns the target TASK-3 (Homo sapiens, UniProt Q9NPC2). Put plainly: K2P family selectivity, TASK-3. The class given is cell-based.
The next series concerns the target TRESK (Homo sapiens, UniProt Q7Z418). Put plainly: K2P family selectivity, TRESK. It counts as cell-based.
The target in the next series is CYP 1A2 (Homo sapiens, UniProt P05177). Briefly: CYP450 inhibition 1A2. The class given is in vitro ADME.
Chain of CYP 1A2 (P05177 whole entry): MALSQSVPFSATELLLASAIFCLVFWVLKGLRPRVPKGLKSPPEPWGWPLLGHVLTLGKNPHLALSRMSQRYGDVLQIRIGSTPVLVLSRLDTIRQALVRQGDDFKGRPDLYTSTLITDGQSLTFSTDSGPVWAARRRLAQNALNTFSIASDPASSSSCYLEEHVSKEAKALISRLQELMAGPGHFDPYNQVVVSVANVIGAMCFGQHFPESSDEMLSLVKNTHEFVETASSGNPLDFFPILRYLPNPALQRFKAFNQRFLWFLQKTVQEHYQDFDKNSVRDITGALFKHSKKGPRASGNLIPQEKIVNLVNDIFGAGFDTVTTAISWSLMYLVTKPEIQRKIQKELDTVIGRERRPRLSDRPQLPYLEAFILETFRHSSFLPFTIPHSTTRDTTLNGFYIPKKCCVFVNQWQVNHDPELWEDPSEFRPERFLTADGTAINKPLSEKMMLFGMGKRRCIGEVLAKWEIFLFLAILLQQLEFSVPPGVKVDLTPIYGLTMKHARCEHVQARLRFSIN
A short description of series [2]: IV/PO pharmacokinetic study, NHP (cyno). The class given is in vivo. The following applies: for clearance / Vd / half-life / Cmax: cynomolgus monkey, plasma; for clearance / Vd / half-life: iv 1 mg/kg; for clearance: read-out: CLp; for Vd: read-out: Vss; for half-life: read-out: elimination t1/2 (converted); for Cmax / F (%) po: po 1 mg/kg.
For a further series, the target named is THIK-1 (Homo sapiens, UniProt Q9HB14). Put plainly: K2P family selectivity, THIK-1. It counts as cell-based.
Chain of THIK-1 (Q9HB14 whole entry, species assumed): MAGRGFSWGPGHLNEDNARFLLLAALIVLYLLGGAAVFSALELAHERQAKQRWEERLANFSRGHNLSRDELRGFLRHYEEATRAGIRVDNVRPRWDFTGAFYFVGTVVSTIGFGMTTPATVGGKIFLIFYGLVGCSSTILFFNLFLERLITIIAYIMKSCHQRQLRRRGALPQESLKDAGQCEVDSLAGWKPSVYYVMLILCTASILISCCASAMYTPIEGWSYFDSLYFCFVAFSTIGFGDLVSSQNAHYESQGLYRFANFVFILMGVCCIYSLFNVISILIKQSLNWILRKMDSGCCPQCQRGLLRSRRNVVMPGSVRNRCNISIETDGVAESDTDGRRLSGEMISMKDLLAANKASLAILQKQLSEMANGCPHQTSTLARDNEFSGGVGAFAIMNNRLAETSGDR
The next series has as its target HCN4 (Homo sapiens, UniProt Q9Y3Q4). Briefly: MPC ion channel panel, HCN4. The class given is cell-based.
In another series the target is DAT (Homo sapiens, UniProt Q01959). Briefly: Functional assay, DAT. The class given is biochemical.
Chain of DAT (Q01959 whole entry, species assumed): as the sequence (Q01959 whole entry) above
The target of the next series is TASK-2 (Homo sapiens, UniProt O95279). Briefly: K2P family selectivity, TASK-2. It counts as cell-based.
For the next series, the target named is Kir2.1 (Homo sapiens, UniProt P63252). Briefly: MPC ion channel panel, Kir2.1. It counts as cell-based.
Chain of Kir2.1 (P63252 whole entry): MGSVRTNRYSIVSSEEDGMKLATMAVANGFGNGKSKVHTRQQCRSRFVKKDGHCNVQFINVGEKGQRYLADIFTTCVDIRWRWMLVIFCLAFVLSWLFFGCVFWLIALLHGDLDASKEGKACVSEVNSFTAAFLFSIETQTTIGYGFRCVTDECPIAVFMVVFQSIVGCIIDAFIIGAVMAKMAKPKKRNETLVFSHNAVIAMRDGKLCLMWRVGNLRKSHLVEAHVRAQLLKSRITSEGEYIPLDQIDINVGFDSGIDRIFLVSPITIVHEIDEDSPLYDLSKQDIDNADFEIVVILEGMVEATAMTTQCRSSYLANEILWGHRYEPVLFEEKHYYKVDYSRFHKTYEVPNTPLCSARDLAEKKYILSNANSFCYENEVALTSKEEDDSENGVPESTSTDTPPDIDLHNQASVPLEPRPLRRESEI
The next series has as its target Kir2.2 (Homo sapiens, UniProt Q14500). Put plainly: MPC ion channel panel, Kir2.2. It counts as cell-based.
Another series addresses TASK-1 (Homo sapiens, UniProt O14649). Briefly: K2P family selectivity, TASK-1. The class given is cell-based.
The next series addresses sodium channel site 2. Put plainly: Radioligand binding, sodium channel site 2.
The mark [3] stands for this setting: radioligand binding displacement, 10 μM.

Molecules are shown by their SMILES. “And” between values parts separate entries of the source, which are not always exact repeats. Equal entries are not always repeated.

Chain of Kir2.2 (Q14500 whole entry): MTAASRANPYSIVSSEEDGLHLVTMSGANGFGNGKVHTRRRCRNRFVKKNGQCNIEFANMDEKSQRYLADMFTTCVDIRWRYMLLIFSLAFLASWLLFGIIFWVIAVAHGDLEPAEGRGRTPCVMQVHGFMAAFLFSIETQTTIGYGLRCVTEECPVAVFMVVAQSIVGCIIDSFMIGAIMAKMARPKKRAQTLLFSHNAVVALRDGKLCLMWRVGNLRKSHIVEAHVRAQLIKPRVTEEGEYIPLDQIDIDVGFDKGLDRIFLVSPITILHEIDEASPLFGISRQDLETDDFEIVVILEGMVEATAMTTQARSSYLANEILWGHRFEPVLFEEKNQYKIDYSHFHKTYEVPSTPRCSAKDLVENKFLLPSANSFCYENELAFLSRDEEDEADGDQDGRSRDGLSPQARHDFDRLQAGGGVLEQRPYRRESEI
Chain of HCN4 (Q9Y3Q4 whole entry): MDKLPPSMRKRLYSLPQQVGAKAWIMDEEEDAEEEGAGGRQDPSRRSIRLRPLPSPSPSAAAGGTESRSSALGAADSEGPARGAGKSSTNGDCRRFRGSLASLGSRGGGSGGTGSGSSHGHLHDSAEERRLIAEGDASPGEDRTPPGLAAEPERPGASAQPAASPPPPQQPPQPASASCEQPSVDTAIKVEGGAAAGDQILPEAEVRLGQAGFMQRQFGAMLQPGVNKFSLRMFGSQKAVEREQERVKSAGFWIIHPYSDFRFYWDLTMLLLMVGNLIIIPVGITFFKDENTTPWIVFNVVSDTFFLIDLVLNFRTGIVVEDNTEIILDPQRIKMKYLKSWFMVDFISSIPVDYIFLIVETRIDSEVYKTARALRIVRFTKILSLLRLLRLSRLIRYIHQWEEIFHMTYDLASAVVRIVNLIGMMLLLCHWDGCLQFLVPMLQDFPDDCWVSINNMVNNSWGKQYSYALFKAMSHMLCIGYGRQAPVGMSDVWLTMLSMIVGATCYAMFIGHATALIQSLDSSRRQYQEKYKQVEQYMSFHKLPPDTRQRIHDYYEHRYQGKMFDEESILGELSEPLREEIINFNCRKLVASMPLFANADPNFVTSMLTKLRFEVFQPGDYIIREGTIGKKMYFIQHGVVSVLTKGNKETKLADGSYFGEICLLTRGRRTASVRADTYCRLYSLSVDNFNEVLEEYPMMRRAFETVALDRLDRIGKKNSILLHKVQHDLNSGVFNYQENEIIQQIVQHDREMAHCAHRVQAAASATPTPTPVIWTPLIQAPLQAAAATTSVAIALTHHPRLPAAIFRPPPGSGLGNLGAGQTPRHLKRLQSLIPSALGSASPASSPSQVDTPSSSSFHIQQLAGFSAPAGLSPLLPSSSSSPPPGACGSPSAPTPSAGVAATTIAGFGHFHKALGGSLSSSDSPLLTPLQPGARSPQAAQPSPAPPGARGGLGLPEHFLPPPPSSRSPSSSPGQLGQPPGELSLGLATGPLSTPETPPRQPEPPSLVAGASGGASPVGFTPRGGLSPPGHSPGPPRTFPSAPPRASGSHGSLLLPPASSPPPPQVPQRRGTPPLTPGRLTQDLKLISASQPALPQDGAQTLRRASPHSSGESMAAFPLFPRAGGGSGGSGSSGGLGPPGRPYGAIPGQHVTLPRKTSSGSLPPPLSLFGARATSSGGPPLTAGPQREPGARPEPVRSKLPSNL
Chain of TASK-1 (O14649 whole entry, species assumed): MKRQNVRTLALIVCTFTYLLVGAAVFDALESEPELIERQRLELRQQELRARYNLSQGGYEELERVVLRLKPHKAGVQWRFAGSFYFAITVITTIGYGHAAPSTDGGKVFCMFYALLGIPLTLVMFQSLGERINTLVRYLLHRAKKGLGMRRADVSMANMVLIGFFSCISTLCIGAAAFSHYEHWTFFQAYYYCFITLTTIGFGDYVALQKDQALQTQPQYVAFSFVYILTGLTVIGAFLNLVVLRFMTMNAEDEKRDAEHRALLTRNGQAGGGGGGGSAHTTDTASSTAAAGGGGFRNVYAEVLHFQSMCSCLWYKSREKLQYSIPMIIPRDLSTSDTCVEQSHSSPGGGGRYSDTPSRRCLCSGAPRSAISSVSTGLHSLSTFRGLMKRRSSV
Chain of TRAAK (Q9NYG8 whole entry, species assumed): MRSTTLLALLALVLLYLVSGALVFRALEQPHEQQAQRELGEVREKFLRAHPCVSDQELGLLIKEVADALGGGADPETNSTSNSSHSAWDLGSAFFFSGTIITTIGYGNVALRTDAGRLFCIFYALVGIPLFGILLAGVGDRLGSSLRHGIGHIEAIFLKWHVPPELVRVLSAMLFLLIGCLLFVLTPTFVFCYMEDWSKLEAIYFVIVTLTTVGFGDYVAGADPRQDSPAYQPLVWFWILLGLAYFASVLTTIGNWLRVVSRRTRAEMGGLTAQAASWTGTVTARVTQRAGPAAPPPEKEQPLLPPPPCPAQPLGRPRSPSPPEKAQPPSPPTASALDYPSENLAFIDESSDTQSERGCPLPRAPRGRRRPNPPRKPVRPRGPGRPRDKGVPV
Chain of TRESK (Q7Z418 whole entry, species assumed): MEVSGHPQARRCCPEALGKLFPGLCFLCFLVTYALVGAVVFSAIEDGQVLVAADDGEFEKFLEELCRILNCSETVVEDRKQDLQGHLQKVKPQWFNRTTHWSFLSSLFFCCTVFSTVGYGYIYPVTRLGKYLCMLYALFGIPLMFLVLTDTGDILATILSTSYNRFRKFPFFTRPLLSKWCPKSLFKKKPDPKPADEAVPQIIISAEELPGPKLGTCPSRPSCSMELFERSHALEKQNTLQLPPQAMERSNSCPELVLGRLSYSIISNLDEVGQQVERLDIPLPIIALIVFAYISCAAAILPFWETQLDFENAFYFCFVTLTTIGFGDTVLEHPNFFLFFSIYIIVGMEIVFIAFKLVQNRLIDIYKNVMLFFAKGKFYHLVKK

The inhibition is how much of the control response was suppressed. A higher inhibition goes with a response far below the control. For orientation: IC50 means the concentration at which inhibition is half-maximal. What is called Cmax is the peak of the concentration-time curve. For `CC(=O)N1CCC(n2ncc(Cl)c2C(=O)Nc2ncc(C#Cc3ccccc3)cc2C)CC1` [Compound 10, 1-(1-Acetylpiperidin-4-yl)-4-chloro-N-(3-methyl-5-(phenylethynyl)pyridin-2-yl)-1H-pyrazole-5-carboxamide], the BHB mouse in [1] was 99.5% and 99.5, 99.5%. Also, the inhibition at 10 µM was 84% against TRAAK; 78% at dopamine transporter DAT (setting [3]); 78% against TASK-3; at most 50% against HCN4; at most 50% at Kir2.1; 51% against Kir2.2. Also, the IC50 at human TREK-2 (hTREK-2) came to 230 nM; at dopamine transporter DAT (follow-up binding) it was 2860 nM; on CYP 1A2 it was 23600 nM; against DAT it was 1210 nM. Besides, the TRESK inhibition entry at TRESK is “nothing significant”. The clearance in [2] was 13.3 mL/min/kg. For the same molecule, the Vd in series [2] amounted to 2.1 L/kg. Further, the half-life in series [2] was 3.3 h. The molecule further had a Cmax in series [2] of 152 ng/mL. Besides, the “F (%) po” value in [2] was 34%. The THIK-1 inhibition result on THIK-1 is on record as “nothing significant”. Moreover, the TASK-2 inhibition entry on TASK-2 was “nothing significant”. In addition, at TASK-1, the TASK-1 inhibition entry is “nothing significant”.

With `CC(=O)N1CC[C@@H](n2ncc(Cl)c2C(=O)Nc2ncc(C#Cc3ccc(F)cc3)cc2C)[C@H](F)C1` [Compound 11, 1-((3R,4R)-1-Acetyl-3-fluoropiperidin-4-yl)-4-chloro-N-(5-((4-fluorophenyl)ethynyl)-3-methylpyridin-2-yl)-1H-pyrazole-5-carboxamide], in [1], the BHB mouse came to 99.5%. Also, the values for the IC50 on human TREK-2 (hTREK-2), at CYP 1A2 and on sodium channel site 2 (follow-up binding) were 290 nM, over 30000 nM and 9130 nM, respectively. For the same molecule, the “sodium channel site 2 inhibition at 10 μM” value in the series with sodium channel site 2 (setting [3]) is on record as 56%. Also, the clearance in [2] is 6.5 mL/min/kg. Besides, the Vd in [2] was determined as 4.4 L/kg. For the same molecule, the half-life in series [2] is 9.3 h. The molecule further registered a Cmax in series [2] of 260 ng/mL. For the same molecule, the “F (%) po” value in series [2] is recorded as 89%. For the same molecule, the inhibition at 10 µM on HCN4, against Kir2.1 and against Kir2.2 was at most 50% throughout.
